Experiment [1] relates to human keratinocytes (HaCaT). Format: cell-based. Conditions: HaCaT, MTT, 24 h.
In the next experiment the test system is E. faecium ATCC 700221. Type of experiment: cell-based, Enterococcus faecium. Conditions: E. faecium ATCC 700221; Mueller-Hinton Broth, 18 h. The method in brief: (§1)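 Following CLSI guidance, compounds (0.5–256 µg/mL) are incubated with bacteria (0.5 × 10^5 CFU/mL, Mueller–Hinton broth) for 18 h at 37 °C. Each MIC reflects complete visible growth inhibition, measured in triplicate with growth and sterility controls.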

Experiment [2] has as its system reference strains of S. aureus. Type of experiment: cell-based, Staphylococcus aureus. The note with it: five reference strains of S. aureus.
For experiment [3], the system named is A. baumannii ATCC BAA-1605. Type of experiment: cell-based, Acinetobacter baumannii. The note with it: A. baumannii ATCC BAA-1605; Mueller-Hinton Broth, 18 h. The method in brief: as §1

Each structure is given as a SMILES string. In brackets after ≈: the same amount, converted by molar mass. Peptide text beside a SMILES is read from it. * marks the point of attachment. Bz = O=C(c1ccccc1)*

Broadly, the IC50 is the concentration that inhibits the measured activity by half. Low values mean higher potency, high ones lower potency. As a reminder, the MIC is the least concentration at which growth counts as inhibited. A lower MIC goes with inhibition by little substance. The compound `CC[C@H](C)[C@H](NC(=O)[C@H](CCCNC(=N)N)NC(=O)[C@H](CCC(N)=O)NC(=O)[C@@H](NC(=O)[C@@H](NC(=O)[C@H](CCCNC(=N)N)NC(=O)[C@H](CCCCN)NC(=O)c1ccccc1)[C@@H](C)CC)C(C)C)C(=O)N[C@@H](CCCCN)C(=O)N[C@@H](CC(=O)O)C(=O)N[C@@H](Cc1ccccc1)C(=O)N[C@@H](CC(C)C)C(=O)N[C@@H](CCCNC(=N)N)C(N)=O` [VIII, Benzoic acid-KR12-NH2] (Bz-KRIVQRIKDFLR-NH2) displayed an IC50 in experiment [1] of 40.50 µg/mL (≈ 24.2 µM). Also, the figures for the MIC (against E. faecium ATCC 700221; in experiment [3]) were 1 µg/mL (≈ 0.597 µM) and 16 µg/mL (≈ 9.55 µM), respectively. Besides, the “GM (geometric mean of the MIC values against S. aureus)” value in experiment [2] is 18.38 µg/mL.

For the origin of these results see article PMC7036753, “Lipidated Analogs of the LL-37-Derived Peptide Fragment KR12—Structural Analysis, Surface-Active Properties and Antimicrobial Activity” (International Journal of Molecular Sciences, 2020).
